Assay results reported in patent EP0664704B1, “USE OF DOPAMINE AGONISTS TO ACTIVATE GAMMA-[…]” (SCHERING AKTIENGESELLSCHAFT, priority 1992, dated 1994).

Experiments:
TNF-α = test: PHA-stimulated TNF-α release in blood of patients treated with subcutaneous lisuride, ELISA of supernatant; type: in vivo, Patienten
Description: (§1) Wir untersuchten die mitogen-induzierte Zytokinfreisetzung von 18 Patienten, die wegen M. Parkinson (n=13) oder Dystonie (n=5) mit subkutanem Lisurid behandelt wurden. 18 Patienten wurden mit 11 gesunden altersgleichen Kontrollen verglichen. Nach mitogener Stimulation mit 50 µl Phythämagglutinin (PHA) (5 µg/ml) über 24 h (TNF-α) bzw. 72h (IFN-γ) wurden TNF-α und IFN-γ im Überstand mit einem Elisa Assay (Gallati 1987) bestimmt: Da die Daten nicht normal verteilt sind, wurde der Mann-Whitney-Test zur Analyse der Gruppenmittelwerte gerechnet. Es fanden sich folgende Ergebnisse:
(§2) Es wurde dieselbe Lisurid-Gruppe (n=18) wie o.a. mit zwei Gruppen gesunder Freiwilliger verglichen: Einer Gruppe junger (Alter unter 50 Jahre) und mit einer Gruppe älterer Gesunder (Alter über 65 Jahre). Die Zytokinmessung und statistische Auswertung erfolgte wie oben erwähnt. […] Dies legt den Schluß nahe, daß die alterskorreliert abnehmende IFN-γ und TNF-α Produktion durch dopaminerge Therapie antagonisiert werden kann.
(§3) Den Daten ist zu entnehmen, daß durch die Behandlung mit Lisurid nach Stimulation eine vermehrte Freisetzung von IFN-γ und TNF-α erfolgt. Die Freisetzung der Cytokine ist erst in vitro in einer Kurzzeit-Kultur des Vollblutes entstanden. In der Kontrollgruppe ohne PHA Zugabe ließ sich kein IFN-γ nachweisen. […]

[1] = tested on: Membranen von weißen Blutzellen; test: Accumulation in membranes of white blood cells, detected by UV fluorescence; settings: UV fluorescence of the molecule
Source text: (§4) Von 10 gesunden jungen Freiwilligen wurden Vollblut-Assays (s.o.) mit 4 verschiedenen Konzentrationen von Lisurid zusammen mit dem Stimulans (PHA) inkubiert. […] Dies läßt vermuten, daß es sich bei den Patientendaten nicht um kurzzeitige Effekte der Substanz auf die immunkompetenten Zellen (vor allem T-Lymphozyten und NK-Zellen) handelt. Vielmehr werden über Rezeptor/postrezeptorische Mechanismen Effekte auf die Freisetzung und/oder Synthese von IFN-γ und anderen Faktoren vermittelt. Auch ein direkter oder indirekter Effekt auf das Genom ist möglich. Für die therapeutische Anwendung erwünscht ist die beobachtete Anreicherung von Dopaminagonisten in den Membranen von weißen Blutzellen, wie sie im Falle von Lisurid durch die UV-Fluoreszenz dieses Moleküls nachweisbar ist.

Tumoren = test: Two-year treatment of rodents: tumour frequency and severity, survival; type: in vivo, Mäusen und Ratten; settings: male and female mice and rats, various doses over 2 years; for Häufigkeit und Schwere von verschiedenen Tumoren: partly dose-dependent, leukaemias, lymphomas, tumours of mammae, pituitary, ovaries
Source text: In vivo-Untersuchungen an Nager-Gruppen von männlichen und weiblichen Mäusen und Ratten wurden mit verschiedenen Dosen von Lisurid und Tergurid über 2 Jahre behandelt. […] Dies läßt eine therapeutisch erwünschte lokale Freisetzung dieser Faktoren bei niederer Dosierung von Dopaminagonisten erwarten, die erst bei excessiver Dosierung zur Ausschwemmung ins Blut gelangt und damit die Nebenwirkung einer direkten IFN-γ-Anwendung bewirkt.

IFN-γ = test: PHA-stimulated IFN-γ release in blood of patients treated with subcutaneous lisuride, ELISA of supernatant; type: in vivo, Patienten
Description: as §1, §2, §3

Zytokin-Freisetzung = test: In vitro cytokine release in whole-blood assays co-incubated with lisuride and PHA; type: cell-based, gesunden jungen Freiwilligen; settings: whole blood of 10 healthy young volunteers; without lisuride vs low, therapeutic and toxic lisuride concentration, together with PHA
Description: as §1, §4

[2] = Six-month continuous s.c. infusion at extremely high dose in monkeys; type: in vivo, Affen; settings: monkey, 1 mg/kg/Tag s.c. infused continuously over 6 months (10-fold maximal human dose)
[3] = lisuride group (n=18, median age 61) vs young healthy group (under 50 years) and older healthy group (over 65 years)

| Structure (SMILES) | α-TNF Produktion nach mitogener Stimulation (TNF-α; [3]) | TNF-α Freisetzung (TNF-α; lisuride-treated patients (n=18) vs 11 healthy age-matched controls, PHA 24 h, Mann-Whitney p=0.055) | Anreicherung in den Membranen von weißen Blutzellen [1] | Anteil überlebender Tiere (Tumoren) | Häufigkeit und Schwere von verschiedenen Tumoren (Tumoren) | IFN-γ Produktion nach mitogener Stimulation (IFN-γ; [3]) | IFN-γ Freisetzung nach PHA-Stimulation (IFN-γ; lisuride-treated patients (n=18, M. Parkinson or Dystonie) vs 11 healthy age-matched controls, PHA 72 h, Mann-Whitney p=0.039) | Zytokin-Freisetzung bei Koinkubation mit Lisurid (Zytokin-Freisetzung) | Befunde bei extrem hoher parenteraler Applikation [2] |
| --- | --- | --- | --- | --- | --- | --- | --- | --- | --- |
| CCN(CC)C(=O)NC1C=C2c3cccc4[nH]cc(c34)CC2N(C)C1 (centres unmarked) [Lisurid] | signifikant erhöht | deutlich erhöht | nachweisbar | signifikante Erhöhung | signifikante Reduktion | signifikant erhöht | signifikant erhöht | keine Unterschiede | wie sie für eine Überproduktion oder Freisetzung von IFN-γ und vergleichbarer Substanzen typisch sind |
| CCN(CC)C(=O)N[C@H]1C[C@@H]2c3cccc4[nH]cc(c34)C[C@H]2N(C)C1 [Tergurid] | – | – | – | signifikante Erhöhung | signifikante Reduktion | – | – | – | – |
